Our source for the melting point values is a melting point compilation (Tetko et al.).

For the data set the following is noted: a range is the spread between reports.

`CCc1ccc(CC)cc1`: the melting point (as a rule, the temperature, or range, at which the solid turns liquid) is -43 to -42.8 °C.
On to `CC(C)C(C)(C)O`, for which the melting point is -14 to -10 °C.
Molecule `Cc1cccc(Br)c1` had a melting point of -40 to -39.8 °C.
The same measure for `Cn1c(=O)n(C)c(=O)n(C)c1=O`: 176 °C.
In the case of `CC(=O)Oc1ccc(OC(C)=O)cc1` it was 121 to 125 °C; in that of `Brc1cccc(I)c1`, -9.3 to -9 °C.
`CCCC#N` returned a melting point of -112 °C.
Molecule `O=Cc1ccc(C(=O)O)cc1` displayed a melting point of 245 to 247 °C.
`CCOC(=O)C(=Cc1ccccc1)C(=O)OCC`: the melting point fell in the range of 30 to 32 °C.
`C[C@H](O)[C@@H](C)O` displayed a melting point of 33 to 34.5 °C.
The molecule `O=C(Cl)c1ccccc1C(=O)Cl` displayed a melting point of 12 to 15.5 °C.
On to `Fc1cc(F)c(F)cc1F`, for which the melting point lay in the range of 4 to 4.5 °C.
The same measure for `CCCCCCCCCCCBr`: -10 to -9 °C; for `c1ccc(-c2nc3ccccc3s2)cc1`: 114 to 115 °C.
Molecule `Cc1ncc([N+](=O)[O-])n1CCO` displayed a melting point of 159 to 160 °C.
In the case of `CCCC(=O)NN` it was 44 to 45.5 °C; in that of `C=C(Br)CC`, -133 °C.
Take `C[Si]1(C)O[Si](C)(C)O[Si](C)(C)O1`: the melting point lay in the range of 60 to 65 °C.
In turn, `FC(F)(F)CC(F)(F)F` displayed a melting point of -98 to -94.2 °C.
In the case of `O=C1OCc2c(Cl)c(Cl)c(Cl)c(Cl)c21` it was 208 to 210 °C; in that of `CCOC(=O)c1ccc(OC)c(OC)c1`, 43.5 to 44 °C; in that of `O=C(O)CCCCCCCCCCC(=O)O`, 128 to 129 °C.
Take `BrCC(Br)Br`: the melting point was -29.3 to -29 °C.
In the case of `OCCOCCO` it was -10.4 to -10 °C.
Turning to `CC(C)=CCN1CCC2(C)c3cc(O)ccc3CC1C2C` (stereo unspecified), the melting point came to 146 °C.
The same measure for `NC(=O)c1ccccc1[N+](=O)[O-]`: 176 to 177 °C; for `c1ccc(CSSCc2ccccc2)cc1`: 70 to 71.5 °C; for `O=C(O)CCl`: 61.5 to 63 °C.
Consider `ClCC1CO1` (stereo unspecified), for which the melting point is -57.2 to -57 °C.
In the case of `FC(F)(F)F` it was -184 °C.
Turning to `Cn1nnnc1S`, the melting point was in the range of 122 to 127 °C.
The same measure for `Oc1ccccc1F`: 15 to 16.1 °C.
Molecule `CON(C)C(=O)Nc1ccc(Cl)c(Cl)c1` had a melting point of 93 to 93.5 °C.
For `N#CCc1cccc(Cl)c1`, the melting point lay within 11.5 to 12 °C.
In the case of `O=C(O)CCOc1ccccc1` it was 97.5 to 98 °C; in that of `COc1ccc2c(c1)c(CC(=O)O)c(C)n2C(=O)c1ccc(Cl)cc1`, 158 to 160 °C; in that of `CCC(C)C(C)(C)CC` (stereo unspecified), -101 °C.
`N[C@@H](Cc1c[nH]cn1)C(=O)O`: the melting point is 282 to 287 °C.
`Cc1ccc(C(C)C)cc1` returned a melting point of -68.9 to -68 °C.
The same measure for `ClCC1CC1`: -91 to -90.9 °C.
In the case of `COc1ccc(C(=O)O)cc1` it was 184 to 185 °C; in that of `O=[N+]([O-])c1c(F)cc(F)cc1F`, 3.5 to 4 °C.
In the case of `C/C=C/C`, the melting point is -106 to -105 °C.
In turn, `CCOCCOC(C)=O` yielded a melting point of -62 to -61 °C.
The same measure for `CCCCC(CC)COC(=O)CCCCC(=O)OCC(CC)CCCC` (stereo unspecified): -67.8 to -67 °C.
In the case of `FC(F)(F)c1ccc(Cl)c(Cl)c1` it was -12.5 to -12 °C.
In the case of `CC#CC` it was -32.3 to -32 °C.
For `O=[N+]([O-])c1ccco1`, the melting point lay within 30 to 31 °C.
Molecule `COc1ccc(C#N)cc1` showed a melting point of 59 to 61.5 °C.
In the case of `N#CCc1cccc(Br)c1` it was 27 to 28 °C.
In turn, `c1ccsc1` displayed a melting point of -39.4 to -38 °C.
Take `OCc1ccccc1`: the melting point is -15.2 to -15 °C.
In the case of `CC(C)(C)S` it was -0.5 to 1 °C; in that of `CCBr`, -119 °C.
The same measure for `C=CCCCCCCCCCCCCCC`: 4 to 4.1 °C; for `C=CCC(C(=O)O)C(=O)O`: 104 to 105 °C; for `O=C1c2ccccc2-c2ccccc21`: 83 to 84 °C.
Molecule `Cc1cc(C)c(Br)c(C)c1` registered a melting point of -1 to 2 °C.
`Oc1ccc(Br)cc1Br` displayed a melting point of 37 to 40 °C.
In turn, `C#CC1(O)CCCCC1` displayed a melting point of 31.5 to 33 °C.
In the case of `CCCC1CCCCC1` it was -95 to -94.9 °C.
The same measure for `Cc1c(F)c(F)c(F)c(F)c1F`: -30 to -29.8 °C; for `CC(=O)CCC(C)=O`: -7 to -5.5 °C; for `CCc1ccc(C)cc1`: -62.3 to -62 °C.
`O=Cc1ccc2ccccc2c1` yielded a melting point of 61 to 62 °C.
In the case of `O=Cc1ccc(Oc2ccccc2)cc1` it was 24.5 to 25 °C; in that of `CCCCCC(C)(C)O`, -50.4 to -50 °C; in that of `CCCCCC(=O)CCCCC`, 14.5 to 15 °C.
`C#CCCC(C)C` returned a melting point of -125 to -124 °C.
The same measure for `Sc1ccc(Br)cc1`: 73 to 75 °C.
The same measure for `Oc1ccccc1C=Nc1ccccc1`: 47.5 to 51 °C; for `COc1ccc(C(=O)c2ccc(OC)cc2O)c(O)c1`: 135 to 140 °C.
As for `O=C(Cl)CCCCCCCCC(=O)Cl`, the melting point is -5 to -2.5 °C.
`COC(=O)c1cc(Cl)ccc1[N+](=O)[O-]` showed a melting point of 48.5 to 49 °C.
In the case of `CC(S)C(=O)O` (stereo unspecified) it was 11 to 12 °C; in that of `CCCCCCC(C)O` (stereo unspecified), -32 to -31.6 °C.
`CCc1ccc(O)cc1O` came in with a melting point of 97 to 98.5 °C.
Turning to `O=Cc1cccc(C=O)c1`, the melting point was 87.8 to 89.5 °C.
On to `Cc1cc(C)c(C)c(O)c1`, for which the melting point fell in the range of 93.5 to 94 °C.
`CCCCNC(N)=O` showed a melting point of 95 to 97 °C.
For `Clc1nc(Cl)nc(Nc2ccccc2Cl)n1`, the melting point was 160 °C.
The same measure for `O=C1C(F)=C(F)C(=O)C(F)=C1F`: 179 to 184 °C.
Consider `OCCCCCCO`, for which the melting point lay in the range of 42 to 45 °C.
`CCC(Br)CC`: the melting point is -126 °C.
In turn, `CCCCCCCCCCCCCCCCCC(=O)CCCCCCCCCCCCCCCCC` returned a melting point of 87 to 89 °C.
Molecule `O=C(O)c1cc([N+](=O)[O-])cc([N+](=O)[O-])c1` gave a melting point of 205 to 206 °C.
As to `CNc1ccc(Cl)cc1C(=O)c1ccccc1`, the melting point is 94 to 96 °C.
As to `Cc1cccc(C(=O)O)c1`, the melting point was in the range of 109 to 112 °C.
In the case of `C[Si](c1ccccc1)(c1ccccc1)c1ccccc1` it was 67 to 69.5 °C; in that of `O=C(O)C(F)(F)C(F)(F)C(F)(F)F`, -18 to -17.5 °C; in that of `OCCCl`, -67.5 to -63 °C.
In the case of `CC(C)(C)C1CCCCC1` it was -41.2 to -41 °C; in that of `COC(=O)c1ccc(Cl)c([N+](=O)[O-])c1`, 80 to 83 °C.
Take `O=C(O)COCC(=O)O`: the melting point is 143 to 148 °C.
The same measure for `COC(=O)c1cccc(C(=O)OC)c1`: 67.5 to 69 °C; for `OCCCCCCCCCO`: 45.8 to 47 °C; for `CCC(C)CC(O)CC` (stereo unspecified): -91.2 to -91 °C.
The same measure for `COc1cc(OC)c(OC)cc1C=O`: 113 to 114 °C; for `NC(=O)c1cccc(Br)c1`: 155 °C.
The same measure for `CCCCCCC(=O)Cl`: -84 to -83.8 °C.
In turn, `O=[N+]([O-])c1cccc(CO)c1` showed a melting point of 30.5 to 32 °C.
Turning to `N#Cc1nn(-c2c(Cl)cc(C(F)(F)F)cc2Cl)c(N)c1S(=O)C(F)(F)F` (stereo unspecified), the melting point fell in the range of 199 to 200 °C.
In the case of `BrCc1ccc(CBr)cc1` it was 142 to 144 °C.
As for `O=c1cc(-c2ccccc2)oc2cc(O)cc(O)c12`, the melting point lay within 286 to 287 °C.
In the case of `Cc1cccc(O)c1` it was 11 to 12 °C.
The molecule `CCC/C=C/C(=O)O` had a melting point of 33 to 36.5 °C.
The same measure for `Brc1ccc(Oc2ccccc2)cc1`: 18 to 18.7 °C; for `CCOC(=O)c1ccc([N+](=O)[O-])cc1`: 57 to 58 °C; for `O=S=O`: -73 to -72 °C.
`CC(=O)Nc1ccc2c(c1)Cc1ccccc1-2` showed a melting point of 193 to 194 °C.
In the case of `Nc1cccc(N)n1` it was 120 to 122 °C; in that of `Nc1cccc2cnccc12`, 128 to 129 °C.
Consider `ClC(Cl)c1ccccc1`, for which the melting point was -17 to -16 °C.
The same measure for `CCCCOC=O`: -92 to -91.5 °C; for `O=Nc1ccccc1`: 65 to 68.5 °C.
The same measure for `Cn1ccc(=O)n(C)c1=O`: 120 to 121 °C; for `CCOC(=O)C(C(=O)OCC)C(=O)OCC`: 28 to 29 °C.
The same measure for `Cc1cc([N+](=O)[O-])ccc1N`: 132 to 134 °C.
As for `O=S(=O)(Cc1ccccc1)c1ccccc1`, the melting point fell in the range of 146 to 149 °C.
On to `CC12CCC3c4ccc(O)cc4CCC3C1CCC2=O` (stereo unspecified), for which the melting point fell in the range of 255 to 259 °C.
In the case of `Cc1ccc(C)o1` it was -62.8 to -62 °C; in that of `COC(C)OC`, -113 °C; in that of `O=C(O)CCC(=O)C(=O)O`, 115 to 116 °C.
The same measure for `CCCCCCCCCCCCCCCCCCCCCCCCCCCCCCCC`: 69.7 to 70 °C.
The same measure for `O=C1NC(=O)c2c1cccc2[N+](=O)[O-]`: 214 to 219 °C; for `CCCC(=O)OCC`: -98 to -93 °C.
For `BrCC(Br)(Br)CBr`, the melting point lay within 10.5 to 11 °C.
Consider `Oc1cc(O)cc(O)c1`, for which the melting point was 218 °C.
For `c1ccc(CN(Cc2ccccc2)c2ccccc2)cc1`, the melting point lay within 69 to 70 °C.
The same measure for `CC(Oc1ccccc1Cl)C(=O)O` (stereo unspecified): 113 to 114 °C.
In the case of `NC(=O)c1cc([N+](=O)[O-])cc([N+](=O)[O-])c1` it was 182 to 184 °C.
In the case of `Oc1cccc2cccnc12`, the melting point was in the range of 74 to 76 °C.
For the molecule `CC(=O)c1ccc(Cl)cc1`, the melting point fell in the range of 18 to 20 °C.
Molecule `C=C(CC)CC` returned a melting point of -132 °C.
Regarding `O=C(O)CCCCCCCBr`, the melting point was in the range of 38.5 to 39 °C.
The same measure for `O=S1(=O)CCCO1`: 31.5 to 32 °C.
The same measure for `COC1=C(OC)C(=O)C(C)=CC1=O`: 58.5 to 59.5 °C.
In the case of `CCO` it was -114 °C; in that of `CC1(C)CC(=O)CC(=O)C1`, 148 °C; in that of `C=C1C2CCC(C2)C1(C)C` (stereo unspecified), 50 to 52 °C.
Regarding `COc1ccc(Cl)cc1N`, the melting point fell in the range of 82 to 83 °C.
